Laboratory results: patent US20160002596A1, “COMPOSITION FOR EX VIVO CULTURING OF A CORNEAL ENDOTHELIAL CELL AND A METHOD FOR USING THE COMPOSITION” (National Taiwan University, priority 2014, published 2016)

Assays:
Assay type in all cases: cell-based, bovine
[1] = test system: active beta-catenin (ABC); experiment: Western blot of active beta-catenin (ABC) expression in corneal endothelial cells
Experimental: With reference to FIG. 5, FIG. 5 was the Western blot analysis showing the expression level of active beta-catenin (ABC) in corneal endothelial cells treated with different concentrations of Marimastat or ADAM10 (ADAM metallopeptidase domain 10) specific inhibitor GI254023X. In group 1-3, the corneal endothelial cells were incubated in the SHEM added with 100 nM, 1 uM or 10 uM of GI254023X, respectively. In group 4-6, cells were incubated in the SHEM added with 100 nM, 1 uM or 10 uM of Marimastat, respectively. In group 1-3, there was no reduction in the expression level of ABC in the presence of ADAM10 specific inhibitor, GI254023X. In group 4, ABC expression level was high despite 100 nM of Marimastat.

[2] = test system: corneal endothelial cells; experiment: Phenotype (cell shape) of ex vivo cultured corneal endothelial cells, immunofluorescence staining against active beta-catenin
[3] = test system: corneal endothelial cells; experiment: Growth / proliferation of ex vivo cultured corneal endothelial cells
From the text: Y-27632 is a known growth stimulator for corneal endothelial cells that is able to increase the ex vivo cell proliferation.

SMILES: CNC(=O)[C@@H](NC(=O)[C@H](CCCc1ccccc1)[C@H](C)N(O)C=O)C(C)(C)C [GI254023X]
- expression level of active beta-catenin (ABC) ([1]; group 1-3: 100 nM, 1 uM or 10 uM in SHEM): no reduction

SMILES: CNC(=O)[C@@H](NC(=O)[C@H](CC(C)C)[C@H](O)C(=O)NO)C(C)(C)C [Marimastat]
- cell morphology of cultured corneal endothelial cells ([2]; group 2 or 4: SHEM with 10 uM MMPI (without or with 10 uM Y-27632) for 9 days): maintained hexagonal morphology
- cell growth of corneal endothelial cells ([3]; groups 2, 4 and 6: 10 uM MMPI added in the SHEM): not obviously inhibited or reduced
- expression level of active beta-catenin (ABC) ([1]; group 4: 100 nM in SHEM): high
- expression level of active beta-catenin (ABC) ([1]; more than 1 uM in SHEM (groups 5-6: 1 uM, 10 uM)): significantly reduced

SMILES: C[C@@H](N)[C@H]1CC[C@H](C(=O)Nc2ccncc2)CC1 [Y-27632]
- cell shape of cultured corneal endothelial cells ([2]; group 3 or 5: SHEM with 10 uM Y-27632 (9 days, or first 3 days only)): elongated and fibroblast-like
- proliferation of corneal endothelial cells ([3]; group 3 or 5: SHEM with 10 uM Y-27632): enhanced proliferation
